These results are taken from PubChem BioAssay (NCI).

Assay in all cases: growth of human tumour cells (NCI), 48 h
In test [1] the test system is COLO 205 colon.
The subject of test [2] is 786-0 renal.
For test [3], the system named is SF-295 CNS.
The test system of test [4] is MOLT-4 leukemia.
The test system of test [5] is SR leukemia.
Test [6] deals with IGROV1 ovarian.
Test [7] concerns HOP-92 NSCLC.
The test system of test [8] is EKVX NSCLC.
The subject of test [9] is HCC-2998 colon.
For test [10], the system named is NCI/ADR-RES ovarian.

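Compound exposure: 48 hours, 5 concentrations, 96-well plates. GI50 is the concentration that inhibits growth by half. TGI: concentration producing complete growth inhibition.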

On to `Cc1ccc2c(c1)CNc1ccc(C)cc1CN2`, for which the TGI in [1], in test [2], in test [3], in test [4], in [5] and in test [6] was over 100 µM each time. For the same compound, the TGI in [7] and in test [8] was over 100 µM each time.
Take `CC1(O)CCC2(C#N)CCC1C2O` (centres undefined): the TGI in test [1] was over 100 µM; in test [2] it was over 100 µM; in test [9], over 100 µM; in test [3], over 100 µM; in test [4] it was over 100 µM; in test [5], 45.4 µM. Further, the TGI in test [6] and in test [8] was over 100 µM throughout.
For the compound `C=CCn1cc(C(=O)NC(=O)NCCCCCOC(=O)CCCCCCCCCCC(=O)OCCCCCNC(=O)NC(=O)c2cn(CC=C)c(=O)n(C)c2=O)c(=O)n(C)c1=O`, the TGI in test [1], in [2], in test [9], in test [4], in test [6] and in [7] was over 100 µM throughout. Moreover, the TGI in test [8] is over 100 µM.
`N#C/C(=C\c1ccc(C(O)P(=O)(O)O)cc1)C(N)=O` (centres undefined): the TGI in test [1], in [2], in test [9], in test [3], in [4] and in test [6] was over 100 µM throughout. Further, the TGI in test [7] and in [8] was over 100 µM in each case.
Consider `c1ccc(COC2(OCc3ccccc3)CC3OC2C2NN=NC32)cc1` (centres undefined), for which the TGI in test [1] is over 100 µM; in test [2], 34.8 µM; in test [9], over 10 µM; in test [3] it was 62.4 µM; in [4], 37.9 µM; in test [6] it was 76.3 µM. The compound also returned a TGI in test [7] of 40.8 µM.
With `CC(=O)OC1Oc2ccccc2-c2oc(=O)c(-c3cc4ccccc4oc3=O)cc21` (centres undefined), the GI50 in test [10] is 22.5 µM; in [1], 35.5 µM; in test [2] it was 16.6 µM; in test [9] it was 57.7 µM; in test [3], 18.6 µM; in [4], 25.4 µM. The GI50 in test [6] was 20.5 µM; in test [7], 19.3 µM; in test [8] it was 26.4 µM. For the same compound, the TGI is 51.3 µM in [10]; over 100 µM in test [1]; 31.3 µM in test [2]; over 100 µM in [9]; 41.3 µM in test [3]; 81.8 µM in test [4]. Besides, the TGI was 48.6 µM in test [6], 45.6 µM in test [7] and 74.6 µM in [8].
`Nc1ncnc2c1cnn2Cc1ccc(Cl)cc1`: the TGI in [10], in [1], in [2], in [9], in test [3] and in test [4] was over 100 µM each time. Further, the TGI in test [6] was over 100 µM; in [7], over 92.5 µM. In addition, the GI50 in test [2] and in [6] was over 100 µM in each case.
For `CC1C(=O)O[C@H]2C1CC[C@@]1(C)[C@H](O)CC[C@@]13C[C@]2(O)OO3` (some centres undefined), the TGI in test [1], in [2], in test [9], in test [3], in test [4] and in [5] was over 100 µM in each case. Moreover, the TGI in [6] and in test [7] was over 100 µM each time.
Turning to `COc1ccc(-c2c(N)[n+]([O-])c3ccccc3[n+]2[O-])cc1OC`, the TGI in test [1], in test [2], in test [3], in test [4], in test [5] and in [6] was over 100 µM throughout. Besides, the TGI in [7] and in test [8] was over 100 µM throughout.
With `O=C(c1ccc(Cl)cc1)c1ccc(OCCSCCCCCCCCCCSCCOc2ccc(C(=O)c3ccc(Cl)cc3)cc2)cc1`, the TGI in test [1], in test [2], in test [9], in test [3], in test [4] and in [6] was over 100 µM throughout. Besides, the TGI in [7] and in test [8] was over 100 µM each time.
For the compound `COc1cc2c(c(OC)c1OC)-c1ccc(OC)c(=O)cc1[C@@H](N(C)C=O)CC2`, the TGI was 0.0251 µM in test [1]; over 100 µM in test [2]; over 100 µM in test [9]; 0.0365 µM in [3]; over 100 µM in test [4]; over 100 µM in test [6]. Also, the TGI in [7] is 0.111 µM; in test [8], over 100 µM.
Turning to `O=C(COc1cccc(/C=C2\CSc3ccccc3C2=O)c1)c1ccc(Cl)cc1`, the GI50 in test [10] was 2.66 µM; in test [1], 2.89 µM; in test [2], 1.4 µM; in [9], 1.47 µM; in test [3], 1.71 µM; in test [4] it was 1.07 µM. The GI50 in test [6] is 2.02 µM; in test [7], 3.27 µM; in test [8], 7.45 µM. The TGI in [10] is 7.33 µM; in test [1] it was 7.35 µM; in test [2] it was 2.89 µM; in test [9] it was 2.8 µM; in test [3] it was 3.44 µM; in [4] it was 3.44 µM. Besides, the TGI in test [6] was found to be 4.26 µM; in test [7] it was 44.2 µM; in test [8], 17.5 µM.
As for `CC/C=C/c1cc2cc[nH]c2c2c1C(C)C[C@@H]2C` (some centres undefined), the TGI was 37.6 µM in test [1]; 36.4 µM in [2]; 55.9 µM in [3]; 53.3 µM in test [4]; over 100 µM in [6]; 62.6 µM in [7]. The compound also had a TGI in test [8] of over 100 µM.
Take `Clc1ccc(Nc2ccnc(NCCCNc3ccnc4cc(Cl)ccc34)n2)cc1`: the GI50 was 1.76 µM in test [10], 1.73 µM in test [2], 1.55 µM in test [3] and 1.16 µM in [7]. For the same compound, the TGI in test [10] stood at 3.38 µM; in test [2] it was 3.33 µM; in [3], 2.96 µM; in test [7], 2.85 µM.
In the case of `CC(=O)/C=C/c1ccc(C)cc1`, the TGI in test [1], in test [2], in [9], in test [3], in test [4] and in test [6] was over 100 µM in each case. The TGI in test [7] and in [8] was over 100 µM throughout.
